Test results reported in patent publication US20240308992A1 (Biopolar Youtang(Guangdong) Pharmaceutical Co., Ltd., priority 2021, published 2024).

Each compound was assayed against T1, Drak2 (Homo sapiens, UniProt O94768) (assay: Drak2 activity test, ADP-Glo kinase assay (Promega)). Settings: inhibition of Drak2 kinase activity, 2 h room temperature, activity range classes, read-out: IC50_Drak2.
T1 sequence (O94768 1-372): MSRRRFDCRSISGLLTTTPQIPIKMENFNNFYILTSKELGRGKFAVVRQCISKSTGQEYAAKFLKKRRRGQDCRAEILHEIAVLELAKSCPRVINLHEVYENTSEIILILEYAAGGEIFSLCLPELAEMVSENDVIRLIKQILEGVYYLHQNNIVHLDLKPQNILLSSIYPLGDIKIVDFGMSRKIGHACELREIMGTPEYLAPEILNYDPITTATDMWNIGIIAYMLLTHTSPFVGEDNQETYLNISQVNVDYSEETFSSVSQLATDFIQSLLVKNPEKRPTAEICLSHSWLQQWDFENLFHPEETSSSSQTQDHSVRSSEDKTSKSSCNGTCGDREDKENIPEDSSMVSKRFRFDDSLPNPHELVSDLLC
Assay type: biochemical

| SMILES | IC50 [nM] |
| --- | --- |
| COc1ccc(-c2cncc(-c3cc(NC(=O)CC4CCCC4)cs3)n2)cc1OC [Example A33, 2-cyclopentyl-N-(5-(6-(3,4-dimethoxyphenyl)pyrazin-2-yl)thiophen-3-yl)acetamide] | 101 to 1000 |
| CCCCC(=O)Nc1csc(-c2cncc(-c3ccc(O)c(F)c3)n2)c1 [Example A34, N-(5-(6-(3-fluoro-4-hydroxyphenyl)pyrazin-2-yl)thiophen-3-yl)pentanamide] | 11 to 100 |
| CCCCC(=O)Nc1csc(-c2cncc(-c3ccc(C4(O)COC4)c(OC)c3)n2)c1 [Example A35, N-(5-(6-(4-(3-hydroxyoxetan-3-yl)-3-methoxyphenyl)pyrazin-2-yl)thiophen-3-yl)pentanamide] | 11 to 100 |
| CCCCC(=O)Nc1csc(-c2cncc(-c3ccc(-c4cc(O)no4)c(OC)c3)n2)c1 [Example A36, N-(5-(6-(4-(3-hydroxyisoxazol-5-yl)-3-methoxyphenyl)pyrazin-2-yl)thiophen-3-yl)pentanamide] | 101 to 1000 |
| CCCCC(=O)Nc1csc(-c2cncc(-c3ccc(C4=NOC(=O)C4)c(OC)c3)n2)c1 [Example A37, N-(5-(6-(3-methoxy-4-(5-oxo-4,5-dihydroisoxazol-3-yl)phenyl)pyrazin-2-yl)thiophen-3-yl)pentanamide] | 101 to 1000 |
| CCCCC(=O)Nc1csc(-c2cncc(-c3cc(F)c(O)c(OC)c3)n2)c1 [Example A38, N-(5-(6-(3-fluoro-4-hydroxy-5-methoxyphenyl)pyrazin-2-yl)thiophen-3-yl)pentanamide] | 1000 to 10000 |
| CCCCC(=O)Nc1csc(-c2cncc(-c3ccc(-c4nc(=O)o[nH]4)c(OC)c3)n2)c1 [Example A39, N-(5-(6-(3-methoxy-4-(5-oxo-2,5-dihydro-1,2,4-oxadiazol-3-yl)phenyl)pyrazin-2-yl)thiophen-3-yl)pentanamide] | 101 to 1000 |
| CCCCC(=O)Nc1csc(-c2cncc(-c3ccc(S(C)(=O)=O)cc3)n2)c1 [Example A40, N-(5-(6-(4-(methylsulfonyl)phenyl)pyrazin-2-yl)thiophen-3-yl)pentanamide] | 101 to 1000 |

Next, values leading:

| IC50 [nM] | SMILES |
| --- | --- |
| 101 to 1000 | CCCCC(=O)Nc1csc(-c2cncc(-c3ccc(F)c(O)c3)n2)c1 [Example A41, N-(5-(6-(4-fluoro-3-hydroxyphenyl)pyrazin-2-yl)thiophen-3-yl)pentanamide] |
| 101 to 1000 | CCCCC(=O)Nc1csc(-c2cncc(-c3ccc(S(C)(=O)=O)c(OC)c3)n2)c1 [Example A42, N-(5-(6-(3-methoxy-4-(methylsulfonyl)phenyl)pyrazin-2-yl)thiophen-3-yl)pentanamide] |
| 11 to 100 | COc1cc(-c2cncc(-c3cc(NC(=O)CC4CC4)cs3)n2)ccc1S(C)(=O)=O [Example A43, 2-cyclopropyl-N-(5-(6-(3-methoxy-4-(methylsulfonyl)phenyl)pyrazin-2-yl)thiophen-3-yl)acetamide] |
| 11 to 100 | COc1cc(-c2cncc(-c3cc(NC(=O)CC4CCC4)cs3)n2)ccc1S(C)(=O)=O [Example A44, 2-cyclobutyl-N-(5-(6-(3-methoxy-4-(methylsulfonyl)phenyl)pyrazin-2-yl)thiophen-3-yl)acetamide] |
| 1000 to 10000 | CCCCC(=O)Nc1cc(-c2cncc(-c3ccc(S(C)(=O)=O)c(OC)c3)n2)sc1C [Example A45, N-(5-(6-(3-methoxy-4-(methylsulfonyl)phenyl)pyrazin-2-yl)-2-methylthiophen-3-yl)pentanamide] |
| 101 to 1000 | CCS(=O)(=O)c1ccc(-c2cncc(-c3cc(NC(=O)CC4CCC4)cs3)n2)cc1OC [Example A46, 2-cyclobutyl-N-(5-(6-(4-(ethylsulfonyl)-3-methoxyphenyl)pyrazin-2-yl)thiophen-3-yl)acetamide] |
| 101 to 1000 | COc1cc(-c2cncc(-c3cc(NC(=O)CC4CCC4)cs3)n2)ccc1[S+](C)[O-] (stereo not drawn) [Example A47, 2-cyclobutyl-N-(5-(6-(3-methoxy-4-(methylsulfinyl)phenyl)pyrazin-2-yl)thiophen-3-yl)acetamide] |
